Assay results taken from patent US20230255966A1, “A COMBINATION OF A CBP/P300 BROMODOMAIN INHIBITOR AND AN EGFR INHIBITOR FOR USE IN TREATING EGFR-MUTANT NSCLC” (TOLREMO THERAPEUTICS AG, priority 2020, published 2023).

Columns and labels:
BRD4(1, 2) = target: T1, BRD4(1, 2) (Homo sapiens, UniProt O60885); assay: BROMOscan BromoKdMAX; assay type: binding
T1 construct: T7 phage strains displaying bromodomains were grown in parallel; purchased DiscoverX; host or cells: T7 phage in E. coli host derived from BL21
Method: (§1) A BromoKdMAX was performed at DiscoverX.
(§2) The assay principle is the following: BROMOscan™ is a novel industry leading platform for identifying small molecule bromodomain inhibitors. Based on proven KINOMEscan™ technology, BRO-MOscan™ employs a proprietary ligand binding site-directed competition assay to quantitatively measure interactions between test compounds and bromodomains.
(§3) The assay was conducted as follows: For the Bromodomain assays, T7 phage strains displaying bromodomains were grown in parallel in 24-well blocks in an E. coli host derived from the BL21 strain. E. coli were grown to log-phase and infected with T7 phage from a frozen stock (multiplicity of infection=0.4) and incubated with shaking at 32° C. until lysis (90-150 minutes). The lysates were centrifuged (5,000×g) and filtered (0.2 μm) to remove cell debris. […] The liganded beads were blocked with excess biotin and washed with blocking buffer (SeaBlock (Pierce), 1% BSA, 0.05% Tween 20, 1 mM DTT) to remove unbound ligand and to reduce non-specific phage binding. […] Test compounds were prepared as 1000× stocks in 100% DMSO. Kds were determined using an 11-point 3-fold compound dilution series with one DMSO control point. […] The compounds were then diluted directly into the assays such that the final concentration of DMSO was 0.09%. All reactions performed in polypropylene 384-well plates. Each was a final volume of 0.02 ml. […] The bromodomain concentration in the eluates was measured by qPCR.

CECR2 = target: T2, CECR2 (Homo sapiens, UniProt Q9BXF3); assay: BROMOscan BromoKdMAX; assay type: binding
T2 construct: T7 phage strains displaying bromodomains were grown in parallel; purchased DiscoverX; host or cells: T7 phage in E. coli host derived from BL21
Method: as §1, §2, §3

T2 sequence (Q9BXF3 434-538 limits assumed): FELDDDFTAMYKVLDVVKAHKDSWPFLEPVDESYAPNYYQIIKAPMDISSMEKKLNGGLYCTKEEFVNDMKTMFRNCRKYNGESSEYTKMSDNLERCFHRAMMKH

## CO[C@H]1CC[C@H](n2c([C@@H]3CCCC(=O)N3c3ccc(F)c(F)c3)nc3cc(-c4c(C)noc4C)ccc32)CC1 [CCS1477]
BRD4(1, 2)
  Kd: 6.9 µM
CECR2
  Kd: > 10 µM
